# Test system: sensitized bronchial muscle
# Test: Antiallergic action: inhibition of egg albumin-induced contraction of sensitized guinea pig bronchial muscle
# Assay type: tissue-based, guinea pigs of Hartley strain
# Conditions: Cavia porcellus; for inhibition at 100 µM: 10^-4 M; for inhibition at 10 µM: 10^-5 M; for inhibition at 1 µM: 10^-6 M; for inhibition at 0.1 µM: 10^-7 M; for inhibition at 0.01 µM: 10^-8 M
# Experimental: Male guinea pigs of Hartley strain (body weight: about 250 g) were intraperitoneally or intramuscularly dosed with egg albumin (dose 100 mg/kg) and the same procedure was repeated after 3 days. After 3 to 4 weeks, the guinea pi-as were bled to death and the sensitized bronchial muscle was excised and cut into 1.5 mm thick rings. Three rings were joined to prepare a specimen. The specimen was suspended in a tissue bath and a load of 1 g was applied. […] After stabilization of the specimen (after about 1 hour), histamine hydrochloride was added to the bath at a final concentration of 10^-5 M. The contraction curve was recorded. After the contraction had been stabilized, the specimen was washed with 3 portions of Ringer's solution at 10-minute intervals to stabilize the contraction (about 1 hour was required). Then, the test compound was added to the tissue bath and, after an interval of 10 minutes, 5 mg/ml of egg albumin was added. The contraction amplitude of the specimen was measured and the percent inhibition was calculated according to the following formula. [formula] A: Contraction amplitude of control group when egg albumin is added A': Contraction amplitude of dosage group when egg albumin is added
# H: Contraction amplitude of control group when histamine hydrochloride is added
# H': Contraction amplitude of dosage group when histamine hydrochloride is added
SMILES,inhibition at 100 µM [%],inhibition at 10 µM [%],inhibition at 1 µM [%],inhibition at 0.1 µM [%],inhibition at 0.01 µM [%]
CC(C)=CCCC(C)(O)C(O)CN(C)c1ccccc1 (stereo not shown) [(2)],58.7,30.1,19.9,–,–
"CC(C)CCCC(C)CCCC(C)(O)C(O)CNC1CCN(Cc2ccccc2)CC1 (stereo not shown) [Compound (40), 1-[(1-benzylpiperidin-4-yl)amino]-3,7-11-trimethyl-2,3-dodecanediol]",–,–,–,34.8,–
CC(C)CCCC(C)CCCC(C)(O)C(O)CN1CCCC1 (stereo not shown) [Compound (38)],–,–,–,36.7,–
CNCC(O)C(C)(O)CCCC(C)CCCC(C)CCCC(C)C (stereo not shown) [(31)],–,10.9,–,–,–
CC(C)CCCC(C)CCCC(C)CCCC(C)(O)C(CO)N(C)C (stereo not shown) [Compound (72)],–,51,60,24,9
CCNCC(O)C(C)(O)CCC=C(C)C (stereo not shown) [Compound (46)],38,54,23,–,–
CNC(CO)C(C)(O)CCCC(C)CCCC(C)C (stereo not shown) [Compound (62)],–,39,35,12,–
CC(C)=CCCC(C)(O)C(O)CN1CCOCC1 (stereo not shown) [Compound (5)],–,28.9,71.5,23,–
"COc1ccc(CN2CCN(CC(O)C(C)(O)CCCC(C)CCCC(C)C)CC2)c(OC)c1OC (stereo not drawn) [Compound (18), 3,7,11-trimethyl-l-[4-[(2,3,4-trimethoxyphenyl)methyl]piperazin-1-yl]-2,3-dodecanediol]",–,62,79,45,–
CC(C)CCCC(C)CCCC(C)(O)C(O)CNCCO (stereo not shown) [Compound (14)],–,48.7,51.4,–,–
"CNCC(O)C(C)(O)CCCC(C)CCCC(C)C (stereo not shown) [Compound (12), 1-methylamino-3,7,11-trimethyl-2,3-dodecanediol]",48.3,35.4,–,–,–
CC(C)CCCC(C)CCCC(C)(O)C(CO)N1CCSCC1 (stereo not shown) [Compound (68)],–,38,36,22,–
CCCCN(CCCC)C(CO)C(C)(O)CCC=C(C)C (stereo not shown) [Compound (53)],–,33,59,49,8
CC(C)CCCC(C)CCCC(C)(O)C(C)N (stereo not shown) [Compound (61)],–,70,48,24,–
"CC(C)CCCC(C)(O)CCCC(C)(O)CCN(C)Cc1ccccc1 (stereo not shown) [Compound (29), 1-(methylbenzylamino)-3,7,11-trimethyl-3,7-dodecanediol]",–,–,–,42.3,–
CC(C)CCCC(C)(O)C(O)CN (stereo not shown) [Compound (7)],–,54.3,48.1,58.7,–
"CC(C)CCCC(C)CCCC(C)(O)C(O)CN(C)C (stereo not shown) [Compound (16), 1-(dimethylamino)-3,7,11-trimethyl-2,3-dodecanediol]",–,48,35,15,–
CC(C)=CCCC(C)(O)C(O)CN1CCCC1 (stereo not shown) [(3)],–,36.3,60,34.2,30.8
CNCC(O)C(C)(O)CCC=C(C)C (stereo not shown) [Compound (44)],–,63,54,–,–
CC(C)CCCC(C)CCCC(C)CCCC(C)(O)C(O)CN (stereo not shown) [Compound (30)],–,16.7,9,–,–
"CCCCN(CCCC)CC(O)C(C)(O)CCCC(C)CCCC(C)C (stereo not shown) [Compound (13), 1-dibutylamino-3,7,11-trimethyl-2,3-dodecanediol]",40.2,–,–,–,–
CC(C)=CCCC(C)(O)C(CO)N1CCCC1 (stereo not shown) [Compound (54)],–,54,63,33,20
CC(C)=CCCC(C)(O)C(CO)N(C)CCO (stereo not shown) [Compound (57)],–,35,17,–,–
CC(C)CCCC(C)CCCC(C)CCCC(C)(O)C(CO)N(C)CCOC(=O)c1cccnc1 (stereo not shown) [Compound (74)],–,43,16,20,–
CC(C)=CCCC(C)(O)C(CO)N1CCOCC1 (stereo not shown) [Compound (56)],–,27,44,16,0
COc1ccc(CN2CCN(C(CO)C(C)(O)CCCC(C)CCCC(C)C)CC2)c(OC)c1OC (stereo not shown) [Compound (65)],–,73,54,37,–
CC(C)=CCCC(C)(O)C(CO)N1CCCCC1 (stereo not shown) [Compound (55)],–,45,17,9,0

SMILES,inhibition at 100 µM [%],inhibition at 10 µM [%],inhibition at 1 µM [%],inhibition at 0.1 µM [%],inhibition at 0.01 µM [%]
CC(C)=CCCC(C)(O)C(O)CN1CCCCC1 (stereo not shown) [Compound (4)],–,42,2.6,–,–
CCN(CC)CC(O)C(C)(O)CCC=C(C)C (stereo not shown) [Compound (48)],–,47,39,–,–
CC(C)CCCC(C)(O)C(N)CO (stereo not shown) [Compound (58)],21,0,0,–,–
CCCCN(CCCC)CC(O)C(C)(O)CCC=C(C)C (stereo not shown) [(1)],43.6,–,–,–,–
"CC(C)CCCC(C)(O)CCCC(C)(O)C(C)N(C)Cc1ccccc1 (stereo not shown) [Compound (71), 2-(benzylmethylamino)-3,7,11-trimethyl-3,7-dodecanediol]",–,–,37,46,–
COc1ccccc1N1CCN(CC(O)C(C)(O)CCCC(C)CCCC(C)C)CC1 (stereo not shown) [Compound (42)],–,–,58,35,–
CC(C)=CCCC(C)(O)C(CO)N(C)C (stereo not shown) [Compound (51)],–,41,18,0,–
CC(C)CCCC(C)CCCC(C)CCCC(C)(O)C(CO)N(C)CCO (stereo not shown) [Compound (73)],–,36,58,47,21
CC(C)=CCCC(C)(O)C(O)CN(C)CCO (stereo not shown) [Compound (6)],–,48.2,28.6,–,–
CCCNCC(O)C(C)(O)CCC=C(C)C (stereo not shown) [Compound (47)],–,52,43,5,–
CCCCNCC(O)C(C)(O)CCC=C(C)C (stereo not shown) [Compound (49)],–,–,61,20.7,–
"CC(C)CCCC(C)CCCC(C)(O)C(O)Cn1ccnc1 (stereo not shown) [Compound (21), 1-(1H-imidazol-1-yl)-3,7,11-trimethyl-2,3-dodecanediol]",–,–,–,66.9,–
CCCCN(CCCC)CC(O)C(C)(O)CCCC(C)CCCC(C)CCCC(C)C (stereo not shown) [Compound (34)],–,65.2,33,3,–
CCCCN(CCCC)CC(O)C(C)(O)CCCC(C)C (stereo not shown) [Compound (9)],–,27.9,67.2,56,16
"CC(C)CCCC(C)CCCC(C)(O)C(O)CN1CCOCC1 (stereo not drawn) [Compound (17), 3,7,11-trimethyl-l-morpholino-2,3-dodecanediol]",–,45,68,29,–
CC(C)=CCCC(C)(O)C(O)CN(C)C (stereo not shown) [Compound (45)],52,41,26,–,–
CNCC(O)C(C)(O)CCCC(C)C (stereo not shown) [Compound (8)],52.6,37.8,–,–,–
"CC(C)=CCCC(C)(O)C(N)CO (stereo not shown) [Compound (50), 2-amino-3,7-dimethyl-6-octene-1,3-diol]",–,55,20,0,–
CC(C)CCCC(C)CCCC(C)(O)C(CO)NC1CCN(Cc2ccccc2)CC1 (stereo not shown) [Compound (63)],–,–,55,45,11
"CC(C)CCCC(C)CCCC(C)(O)C(CO)N(C)C(=O)c1cccnc1 (stereo not shown) [Compound (66), N-methyl-N-(1,3-dihydroxy-3,7,11-trimethyldodecan-2-yl)nicotinamide]",–,77,72,81,–
CCN(CC)CC(O)C(C)(O)CCCC(C)CCCC(C)CCCC(C)C (stereo not shown) [(33)],–,47.9,32.6,–,–
CC(C)CCCC(C)CCCC(C)(O)C(O)CNCCCN1CCOCC1 (stereo not shown) [Compound (22)],–,–,–,46.9,–
"CNC(C)C(C)(O)CCCC(C)(O)CCCC(C)C (stereo not shown) [Compound (70), 2-(methylamino)-3,7,11-trimethyl-3,7-dodecanediol]",–,–,42,19,–
CC(C)CCCC(C)CCCC(C)(O)C(O)CNc1cccc2ncccc12 (stereo not shown) [Compound (23)],–,–,76,55,27
CC(C)CCCC(C)CCCC(C)(O)C(O)CNc1ccc(O)cc1 (stereo not shown) [Compound (19)],–,43,54,33,–
CC(C)CCCC(C)CCCC(C)(O)C(CO)NCCCN1CCOCC1 (stereo not shown) [Compound (69)],–,–,65,52,–
"CC(C)CCCC(C)(O)C(CO)N(C)CCO (stereo not shown) [Compound (60), 2-[(2-hydroxyethyl)methylamino]-3,7-dimethyl-1,3-octanediol]",–,35,11,0,–

# — patent US5284850A, “Terpene amino alcohols and medicinal uses thereof” (Kuraray Co., Ltd., priority 1985, dated 1994)
